{"source": "patent US20200330379A1", "about": "“NON-ORAL CANNABINOID FORMULATION AND METHOD OF TREATMENT” (Navinta NV, Inc., priority 2019, published 2020)", "origin": "cited, not measured here", "conditions": "limited by first-pass metabolism", "data": [{"smiles": "CCCCCc1cc(O)c2c(c1)OC(C)(C)[C@@H]1CCC(C)=C[C@@H]21", "note": "[THC, (6aR,10aR)-6,6,9-trimethyl-3-pentyl-6a,7,8,10a-tetrahydro-6H-benzo[c]-chromen-1-ol]", "values": [{"measurement": "Oral bioavailability", "value": "10% and 20"}]}]}
